Test system: 521955-158-R2-J5-PDC complex spheroid growth
Assay: Anticancer human tumor 521955-158-R2-J5-PDC patient-derived pancreatic carcinoma cell line growth inhibition [AhR]
Details: for IC50: curve of first compound; for viability, T/C: stronger effect = lower value
Procedure, shortened: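 Spheroids combined tumor cells with HUVEC endothelial cells and human MSCs as stroma. AhR antagonists were paired with standard or investigational drugs, each dosed in half-log steps down from near clinical Cmax, or from 10 microM where Cmax was unknown.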

[1] = second compound 0.1 µM, first compound 0.00316 µM
[2] = second compound 0.1 µM, first compound 0.01 µM
[3] = second compound 0.1 µM, first compound 0.0316 µM
[4] = second compound 0.1 µM, first compound 0.1 µM
[5] = second compound 0.316 µM, first compound 0.00316 µM
[6] = second compound 0.316 µM, first compound 0.01 µM
[7] = second compound 0.316 µM, first compound 0.0316 µM
[8] = second compound 0.316 µM, first compound 0.1 µM
[9] = second compound 1 µM, first compound 0.00316 µM
[10] = second compound 1 µM, first compound 0.01 µM
[11] = second compound 1 µM, first compound 0.0316 µM
[12] = second compound 1 µM, first compound 0.1 µM
[13] = second compound 3.16 µM, first compound 0.00316 µM
[14] = second compound 3.16 µM, first compound 0.01 µM
[15] = second compound 3.16 µM, first compound 0.0316 µM
[16] = second compound 3.16 µM, first compound 0.1 µM
[17] = second compound 10 µM, first compound 0.00316 µM
[18] = second compound 10 µM, first compound 0.01 µM
[19] = second compound 10 µM, first compound 0.0316 µM
[20] = second compound 10 µM, first compound 0.1 µM
[21] = second compound 0.1 µM, first compound 0.316 µM
[22] = second compound 0.1 µM, first compound 1 µM
[23] = second compound 0.1 µM, first compound 3.16 µM
[24] = second compound 0.1 µM, first compound 10 µM
[25] = second compound 0.316 µM, first compound 0.316 µM
[26] = second compound 0.316 µM, first compound 1 µM
[27] = second compound 0.316 µM, first compound 3.16 µM
[28] = second compound 0.316 µM, first compound 10 µM
[29] = second compound 1 µM, first compound 0.316 µM
[30] = second compound 1 µM, first compound 1 µM
[31] = second compound 1 µM, first compound 3.16 µM
[32] = second compound 1 µM, first compound 10 µM
[33] = second compound 3.16 µM, first compound 0.316 µM
[34] = second compound 3.16 µM, first compound 1 µM
[35] = second compound 3.16 µM, first compound 3.16 µM
[36] = second compound 3.16 µM, first compound 10 µM
[37] = second compound 10 µM, first compound 0.316 µM
[38] = second compound 10 µM, first compound 1 µM
[39] = second compound 10 µM, first compound 3.16 µM
[40] = second compound 10 µM, first compound 10 µM
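Wherever viability, T/C is given: spheroids mix tumor cells with HUVEC endothelium and human MSC stroma; luminescence taken as viability surrogate after a week of drug exposure.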

SMILES	IC50 (second compound 0.1 µM) [nM]	IC50 (second compound 0.316 µM) [nM]	IC50 (second compound 1 µM) [nM]	IC50 (second compound 3.16 µM) [nM]	IC50 (second compound 10 µM) [nM]	viability, T/C [3] [%]	viability, T/C [4] [%]	viability, T/C [7] [%]	viability, T/C [8] [%]	viability, T/C [11] [%]	viability, T/C [12] [%]	viability, T/C [15] [%]	viability, T/C [16] [%]	viability, T/C [19] [%]	viability, T/C [20] [%]	viability, T/C [21] [%]	viability, T/C [22] [%]	viability, T/C [25] [%]	viability, T/C [26] [%]	viability, T/C [29] [%]	other results
CC[C@@]1(O)C(=O)OCc2c1cc1n(c2=O)Cc2cc3c(CN(C)C)c(O)ccc3nc2-1 + Cc1cncc(-c2nc(NCCc3c[nH]c4ccccc34)c3ncn(C(C)C)c3n2)c1	54.2	43.7	43.1	58.3	> 100	72.3	28.1	61.6	27.1	56.9	25.9	72.6	30.5	103	38.5	–	–	–	–	–	viability, T/C (second compound 0.1 µM, first compound 0.000316 µM): 95.1%; viability, T/C (second compound 0.1 µM, first compound 0.001 µM): 95.6%; viability, T/C [1]: 101%; viability, T/C [2]: 76.8%; viability, T/C (second compound 0.316 µM, first compound 0.000316 µM): 113%; viability, T/C (second compound 0.316 µM, first compound 0.001 µM): 105%; viability, T/C [5]: 109%; viability, T/C [6]: 78.8%; viability, T/C (second compound 1 µM, first compound 0.000316 µM): 117%; viability, T/C (second compound 1 µM, first compound 0.001 µM): 133%; viability, T/C [9]: 100%; viability, T/C [10]: 99%; viability, T/C (second compound 3.16 µM, first compound 0.000316 µM): 155%; viability, T/C (second compound 3.16 µM, first compound 0.001 µM): 141%; viability, T/C [13]: 143%; viability, T/C [14]: 111%; viability, T/C (second compound 10 µM, first compound 0.000316 µM): 214%; viability, T/C (second compound 10 µM, first compound 0.001 µM): 158%; viability, T/C [17]: 144%; viability, T/C [18]: 94.5%
COc1cc(C2c3cc4c(cc3C(OC3OC5COC(C)OC5C(O)C3O)C3COC(=O)C23)OCO4)cc(OC)c1O (stereo not given) + Cc1cncc(-c2nc(NCCc3c[nH]c4ccccc34)c3ncn(C(C)C)c3n2)c1	1080	1010	980	1050	1810	102	107	107	101	106	111	112	126	179	126	85	52.6	93.2	49.1	86.5	viability, T/C [23]: 29%; viability, T/C [24]: 25.8%; viability, T/C [27]: 27.4%; viability, T/C [28]: 19.2%; viability, T/C [30]: 50.2%; viability, T/C [31]: 27.9%; viability, T/C [32]: 23.6%; viability, T/C [33]: 118%; viability, T/C [34]: 50.9%; viability, T/C [35]: 34.4%; viability, T/C [36]: 26.2%; viability, T/C [37]: 118%; viability, T/C [38]: 56.9%; viability, T/C [39]: 31.6%; viability, T/C [40]: 25.1%
COc1cccc2c1C(=O)c1c(O)c3c(c(O)c1C2=O)CC(O)(C(=O)CO)CC3OC1CC(N)C(O)C(C)O1 (stereo not given) + Cc1cncc(-c2nc(NCCc3c[nH]c4ccccc34)c3ncn(C(C)C)c3n2)c1	< 31.6	< 31.6	< 31.6	72.6	108	53.6	35.6	49	35	51.2	30.6	64.2	37.3	64.2	48.4	36.2	2.01	39.2	0.95	46.8	viability, T/C [23]: 6.72%; viability, T/C [24]: 11.6%; viability, T/C [27]: 6.23%; viability, T/C [28]: 14.8%; viability, T/C [30]: 1.72%; viability, T/C [31]: 5.39%; viability, T/C [32]: 16.6%; viability, T/C [33]: 41.3%; viability, T/C [34]: 2.7%; viability, T/C [35]: 8.4%; viability, T/C [36]: 12.2%; viability, T/C [37]: 29%; viability, T/C [38]: 0.47%; viability, T/C [39]: 3.33%; viability, T/C [40]: 9.06%
Nc1ccn(C2OC(CO)C(O)C2(F)F)c(=O)n1 (stereo not given) + Cc1cncc(-c2nc(NCCc3c[nH]c4ccccc34)c3ncn(C(C)C)c3n2)c1	571	501	860	967	604	67.6	65.7	87.5	80.8	104	86	116	97.5	151	99.3	62.2	38.4	58.9	34.8	70.4	viability, T/C [23]: 31.8%; viability, T/C [24]: 24.7%; viability, T/C [27]: 33.6%; viability, T/C [28]: 22.3%; viability, T/C [30]: 42.6%; viability, T/C [31]: 38.3%; viability, T/C [32]: 25.3%; viability, T/C [33]: 73.7%; viability, T/C [34]: 47.7%; viability, T/C [35]: 36%; viability, T/C [36]: 26.1%; viability, T/C [37]: 67.2%; viability, T/C [38]: 36%; viability, T/C [39]: 27.7%; viability, T/C [40]: 22.2%
Nc1ncn(C2CC(O)C(CO)O2)c(=O)n1 (stereo not given) + Cc1cncc(-c2nc(NCCc3c[nH]c4ccccc34)c3ncn(C(C)C)c3n2)c1	936	> 1000	> 1000	> 1000	> 1000	101	95.4	96.4	82.7	121	93.9	145	119	152	124	79.6	48.2	63.9	55.7	82.3	viability, T/C [1]: 92.4%; viability, T/C [2]: 84.2%; viability, T/C [5]: 102%; viability, T/C [6]: 99%; viability, T/C [9]: 112%; viability, T/C [10]: 117%; viability, T/C [30]: 57.5%; viability, T/C [13]: 148%; viability, T/C [14]: 123%; viability, T/C [33]: 115%; viability, T/C [34]: 79.8%; viability, T/C [17]: 141%; viability, T/C [18]: 110%; viability, T/C [37]: 135%; viability, T/C [38]: 76.1%

— PubChem BioAssay AID1918998 (Molecular Pharmacology Branch, DTP, NCI, 2023)
